Peptide text beside a SMILES is read from it.
Key:
[1] = test system: perceived sweet intensity (panelists); experiment: Sensory time-intensity (TI) measurement of sweetness by a trained panel; assay type: in vivo, human; conditions: for Emax of max. intensity (sensory): scale 0-100, top < 100; for sweetener concentration up to which lactisole effectively inhibited the sweetness: time-intensity curves; for EC50: Homo sapiens, asymmetric five parameter curve fit, read-out: EC50 of max. intensity (sensory); for lingering: time point at which < 50 % of maximum sweetness was reached / onset (time of first maximum intensity): at sweet intensity saturation level: 50 mM cyclamate, 0.5 mM NHDC, 5.0 mM acesulfame K, 5.0 mM aspartame, without lactisole; for mode of inhibition by lactisole (shift of dose-response curve), sensory experiments: combination with 0.46 and 0.92 mM lactisole
Excerpt: All panelists gave their written informed consent for participating in the panel and had to complete a sensory training. […] On a last training day, the evaluation on unstructured scales and the time-dependent evaluation on the computer were trained. All panelists reported to be in good general health condition, and not being under medication or pregnant. At least one hour before every training or tasting, panelists were instructed not to smoke and not to consume intense tasting food or beverage (e.g. coffee, chili, garlic, chewing gum) and to avoid in general strong hunger or fullness as well as strong odors or perfume on test days.
Every test solution was assessed randomly at two different test days with at least 8 panelists participating per replicate. The panelists were free to choose to participate at the different test days. A maximum of five test compounds were assessed in one session. All samples were coded with three-digit random code and presented to the panelists in randomized order. On each test day, panelists were presented five sweet solutions with 0, 25, 50, 100 and 200 g/L sucrose as a scale training for the ratings from “not at all” to “very intensive” sweetness. […] The three minutes of evaluation were chosen to capture as much of the lingering as possible without wearing out the panelists during the evaluation. A total of 350 measuring time points was recorded within the pre-set time frame, especially to see differences in the first seconds of evaluation, which are important for the onset. The panelists were asked to take the sample (20 mL) into their mouth, while starting the timer and simultaneously the evaluation of sweet intensity over the time, and to spit out the sample after ten seconds while continuing the evaluation of the sweetness intensity until the end of the three minutes.
For comparison of the time-dependent properties, the following descriptors were used: the maximum intensity at the first 30 sec of evaluation as “max. intensity”, the time-point of the first maximum intensity as “onset” in sec, […], and the area under the curve from the time-intensity plots as “AUC” as a marker for the overall intensity and duration.
All sensory experiments were conducted at the Christian Doppler Laboratory for Taste Research at the Institute for Physiological Chemistry, University of Vienna, Austria, at room temperature (21 – 23 °C). • Calcium mobilization assay
The statistical analysis and graphical representation were performed with GraphPad Prism 9.0 for sensory results and with SigmaPlot 14.0 for cell experiments. To evaluate the sensory dose–response effects of ascending sweetener concentration w/o lactisole, an asymmetrical five-parameter curve (Richard́s five-parameter dose–response curve) was fitted. The data are presented as means ± SEM from at least 16 single evaluations. Statistical significance between the different test compounds and concentration-dependent effects was assessed by two-way ANOVAs with Tukey post hoc test using Graph Pad Prism. The normal distribution of the data sets was checked by evaluation of the kurtosis (between −7 to + 7) and the skewness (between −3 to + 3). Equal variance was tested using Levenés test. In case the assumptions of a normal distribution and equal variance were not met, the non-parametric ANOVA on ranks (Kruskal-Wallis Test) with Dunn's post-hoc test without the calculation of interaction was applied. A Pearson product moment correlation was conducted to investigate relationships between sensory results and cell responses of the tested sweeteners.

[2] = test system: sweetness; set-up: method as in Schiffman et al., 1995; conditions: compared to 5 % sucrose; ref Schiffman et al., 1995; cited from earlier work

Row | SMILES | Hillslope of max. intensity dose-response (sensory) ([1]; 0 mM lactisole) | Emax of max. intensity (sensory) ([1]; 0 mM lactisole) | sweetener concentration up to which lactisole effectively inhibited the sweetness ([1]; 0.46 mM lactisole) | sweetener concentration up to which lactisole effectively inhibited the sweetness ([1]; 0.92 mM lactisole) | EC50 ([1]; 0 mM lactisole) [mM] | lingering: time point at which < 50 % of maximum sweetness was reached [1] [s] | onset (time of first maximum intensity) [1] [s] | Hillslope of max. intensity dose-response (sensory) ([1]; with 0.46 mM lactisole) | Emax of max. intensity (sensory) ([1]; with 0.46 mM lactisole) | Hillslope of max. intensity dose-response (sensory) ([1]; with 0.92 mM lactisole) | Emax of max. intensity (sensory) ([1]; with 0.92 mM lactisole) | sensory sweetness factor [2] | mode of inhibition by lactisole (shift of dose-response curve), sensory experiments [1]
1 | COC(=O)[C@H](Cc1ccccc1)NC(=O)[C@@H](N)CC(=O)O [aspartame] (H-Asp-Phe-OMe) | 2.56 | 97.05 | ≤ 1.0 mM | up to 2.0 mM | 1.09 | 71.4 | 5.7 | 1.28 | 99.22 | 1.32 | 100.00 |  | 
2 | COc1ccc(CCC(=O)c2c(O)cc(O[C@@H]3O[C@H](CO)[C@@H](O)[C@H](O)[C@H]3O[C@@H]3O[C@@H](C)[C@H](O)[C@@H](O)[C@H]3O)cc2O)cc1O [NHDC, neohesperidin dihydrochalcone] | 0.94 | 97.73 | up to 0.2 mM | up to 0.5 mM | 0.056 | 100.7 | 5.1 | 0.89 | 100.00 | 0.82 | 100.00 | approximately 900 | competitive inhibition
3 | CC1=CC(=O)NS(=O)(=O)O1 [acesulfame K] | 1.43 | unstable | up to 1 mM | up to 1 mM | 0.92 | 44.7 | 4.6 | 2.75 | 71.83 | 1.45 | 73.60 |  | 
4 | O=S(=O)(O)NC1CCCCC1 [cyclamate] | 2.60 | 96.11 | up to 5.0 mM | ≤ 10.0 mM | 8.72 | 60.1 | 5.1 | 2.18 | 92.37 | 2.10 | unstable | around 30 | competitive inhibition

Reference: PMC9532755, “Impact of lactisole on the time-intensity profile of selected sweeteners in dependence of the binding site” (Food Chemistry: X, 2022)
